{"source": "patent US11793849B2", "about": "“Method of Chinese herbal medicine extract used for treating multiple diseases caused by drug resistant bacteria infection” (priority 2016, dated 2023)", "system": "MDRAB", "experiment": "MIC determination, microdilution broth method", "type": "cell-based, Acinetobacter baumannii", "key": {"[1]": {"settings": "single use, 20 MDRABs, EA=10% ethanol extract"}, "[2]": {"settings": "single use, 20 MDRABs, EA=water extract"}, "[3]": {"settings": "single use, 20 MDRABs, section of the 95% ethanol extract"}}, "note": "Read-outs that look alike come from different tables or passages of the source.", "method": "Determination methods of a Minimal Inhibitory Concentration (MIC) and a Minimum Bactericidal Concentration (MBC) of a test product: the MIC and the MBC of the Pithecellobium clypearia Benth water or ethanol extract to the MDRAB are determined by a microdilution broth method. And it is operated by referring to the microdilution broth method recommended by National Committee for Clinical Laboratory Standards (NCCLS).", "data": [{"smiles": "C[C@H]1COc2c(N3CCN(C)CC3)c(F)cc3c(=O)c(C(=O)O)cn1c23", "note": "[LVX, Levofloxacin]", "values": [{"measurement": "MIC", "setting": "Acinetobacter baumannii, strain A12, single use, EA=water extract, read-out: MIC", "value": 32, "unit": "µg/mL"}, {"measurement": "MIC", "setting": "Acinetobacter baumannii, strain A13, EA=60% ethanol extract, read-out: MIC", "value": 32, "unit": "µg/mL"}, {"measurement": "MIC", "setting": "Acinetobacter baumannii, strain A13, EA=95% ethanol extract, read-out: MIC", "value": 32, "unit": "µg/mL"}, {"measurement": "MIC", "setting": "Acinetobacter baumannii, strain A13, EA=P. clypearia 95% ethanol extract, read-out: single-use MIC", "value": 32, "unit": "µg/mL"}, {"measurement": "MIC", "setting": "Acinetobacter baumannii, strain A13, single use, EA=10% ethanol extract, read-out: MIC", "value": 32, "unit": "µg/mL"}, {"measurement": "MIC", "setting": "Acinetobacter baumannii, strain A13, single use, EA=water extract, read-out: MIC", "value": 32, "unit": "µg/mL"}, {"measurement": "MIC", "setting": "Acinetobacter baumannii, strain A14, EA=60% ethanol extract, read-out: MIC", "value": 16, "unit": "µg/mL"}, {"measurement": "MIC", "setting": "Acinetobacter baumannii, strain A14, EA=95% ethanol extract, read-out: MIC", "value": 16, "unit": "µg/mL"}, {"measurement": "MIC", "setting": "Acinetobacter baumannii, strain A14, EA=P. clypearia 95% ethanol extract, read-out: single-use MIC", "value": 16, "unit": "µg/mL"}, {"measurement": "MIC", "setting": "Acinetobacter baumannii, strain A14, single use, EA=10% ethanol extract, read-out: MIC", "value": 16, "unit": "µg/mL"}, {"measurement": "MIC", "setting": "Acinetobacter baumannii, strain A14, single use, EA=water extract, read-out: MIC", "value": 16, "unit": "µg/mL"}, {"measurement": "MIC", "setting": "Acinetobacter baumannii, strain A15, EA=60% ethanol extract, read-out: MIC", "value": 32, "unit": "µg/mL"}, {"measurement": "MIC", "setting": "Acinetobacter baumannii, strain A15, EA=95% ethanol extract, read-out: MIC", "value": 32, "unit": "µg/mL"}, {"measurement": "MIC", "setting": "Acinetobacter baumannii, strain A15, EA=P. clypearia 95% ethanol extract, read-out: single-use MIC", "value": 32, "unit": "µg/mL"}, {"measurement": "MIC", "setting": "Acinetobacter baumannii, strain A15, single use, EA=10% ethanol extract, read-out: MIC", "value": 32, "unit": "µg/mL"}, {"measurement": "MIC", "setting": "Acinetobacter baumannii, strain A15, single use, EA=water extract, read-out: MIC", "value": 32, "unit": "µg/mL"}, {"measurement": "MIC", "setting": "Acinetobacter baumannii, strain A16, EA=60% ethanol extract, read-out: MIC", "value": 8, "unit": "µg/mL"}, {"measurement": "MIC", "setting": "Acinetobacter baumannii, strain A16, EA=95% ethanol extract, read-out: MIC", "value": 8, "unit": "µg/mL"}, {"measurement": "MIC", "setting": "Acinetobacter baumannii, strain A16, EA=P. clypearia 95% ethanol extract, read-out: single-use MIC", "value": 8, "unit": "µg/mL"}, {"measurement": "MIC", "setting": "Acinetobacter baumannii, strain A16, single use, EA=10% ethanol extract, read-out: MIC", "value": 8, "unit": "µg/mL"}, {"measurement": "MIC", "setting": "Acinetobacter baumannii, strain A16, single use, EA=water extract, read-out: MIC", "value": 8, "unit": "µg/mL"}, {"measurement": "MIC", "setting": "Acinetobacter baumannii, strain A17, EA=60% ethanol extract, read-out: MIC", "value": 16, "unit": "µg/mL"}, {"measurement": "MIC", "setting": "Acinetobacter baumannii, strain A17, EA=95% ethanol extract, read-out: MIC", "value": 16, "unit": "µg/mL"}, {"measurement": "MIC", "setting": "Acinetobacter baumannii, strain A17, EA=P. clypearia 95% ethanol extract, read-out: single-use MIC", "value": 16, "unit": "µg/mL"}, {"measurement": "MIC", "setting": "Acinetobacter baumannii, strain A17, single use, EA=10% ethanol extract, read-out: MIC", "value": 16, "unit": "µg/mL"}, {"measurement": "MIC", "setting": "Acinetobacter baumannii, strain A17, single use, EA=water extract, read-out: MIC", "value": 16, "unit": "µg/mL"}, {"measurement": "MIC", "setting": "Acinetobacter baumannii, strain A18, EA=60% ethanol extract, read-out: MIC", "value": 8, "unit": "µg/mL"}, {"measurement": "MIC", "setting": "Acinetobacter baumannii, strain A18, EA=95% ethanol extract, read-out: MIC", "value": 8, "unit": "µg/mL"}, {"measurement": "MIC", "setting": "Acinetobacter baumannii, strain A18, EA=P. clypearia 95% ethanol extract, read-out: single-use MIC", "value": 8, "unit": "µg/mL"}, {"measurement": "MIC", "setting": "Acinetobacter baumannii, strain A18, single use, EA=10% ethanol extract, read-out: MIC", "value": 8, "unit": "µg/mL"}, {"measurement": "MIC", "setting": "Acinetobacter baumannii, strain A18, single use, EA=water extract, read-out: MIC", "value": 8, "unit": "µg/mL"}, {"measurement": "MIC", "setting": "Acinetobacter baumannii, strain A19, EA=60% ethanol extract, read-out: MIC", "value": 16, "unit": "µg/mL"}, {"measurement": "MIC", "setting": "Acinetobacter baumannii, strain A19, EA=95% ethanol extract, read-out: MIC", "value": 16, "unit": "µg/mL"}, {"measurement": "MIC", "setting": "Acinetobacter baumannii, strain A19, EA=P. clypearia 95% ethanol extract, read-out: single-use MIC", "value": 16, "unit": "µg/mL"}, {"measurement": "MIC", "setting": "Acinetobacter baumannii, strain A19, single use, EA=10% ethanol extract, read-out: MIC", "value": 16, "unit": "µg/mL"}, {"measurement": "MIC", "setting": "Acinetobacter baumannii, strain A19, single use, EA=water extract, read-out: MIC", "value": 16, "unit": "µg/mL"}, {"measurement": "MIC", "setting": "Acinetobacter baumannii, strain A20, EA=60% ethanol extract, read-out: MIC", "value": 16, "unit": "µg/mL"}, {"measurement": "MIC", "setting": "Acinetobacter baumannii, strain A20, EA=95% ethanol extract, read-out: MIC", "value": 16, "unit": "µg/mL"}, {"measurement": "MIC", "setting": "Acinetobacter baumannii, strain A20, EA=P. clypearia 95% ethanol extract, read-out: single-use MIC", "value": 16, "unit": "µg/mL"}, {"measurement": "MIC", "setting": "Acinetobacter baumannii, strain A20, single use, EA=10% ethanol extract, read-out: MIC", "value": 16, "unit": "µg/mL"}, {"measurement": "MIC", "setting": "Acinetobacter baumannii, strain A20, single use, EA=water extract, read-out: MIC", "value": 16, "unit": "µg/mL"}, {"measurement": "MIC", "setting": "Acinetobacter baumannii, strain AS, EA=P. clypearia 95% ethanol extract, read-out: single-use MIC", "value": 4, "unit": "µg/mL"}, {"measurement": "MIC50", "setting": "Acinetobacter baumannii, single use, 20 MDRABs, section of the 60% ethanol extract, read-out: MIC50", "value": 8, "unit": "µg/mL"}, {"measurement": "MIC90", "setting": "Acinetobacter baumannii, single use, 20 MDRABs, section of the 60% ethanol extract, read-out: MIC90", "value": 32, "unit": "µg/mL"}, {"measurement": "MIC50", "setting": "MDRABs, EA=60% ethanol extract", "value": 8, "unit": "µg/mL"}, {"measurement": "MIC90", "setting": "MDRABs, EA=60% ethanol extract", "value": 32, "unit": "µg/mL"}, {"measurement": "MIC Range", "setting": "MDRABs, EA=60% ethanol extract", "value": "0.5 to 32", "unit": "µg/mL"}, {"measurement": "MIC50", "setting": "MDRABs, EA=95% ethanol extract", "value": 8, "unit": "µg/mL"}, {"measurement": "MIC90", "setting": "MDRABs, EA=95% ethanol extract", "value": 32, "unit": "µg/mL"}, {"measurement": "MIC Range", "setting": "MDRABs, EA=95% ethanol extract", "value": "0.5 to 32", "unit": "µg/mL"}, {"measurement": "MIC50", "setting": "[1]", "value": 8, "unit": "µg/mL"}, {"measurement": "MIC90", "setting": "[1]", "value": 32, "unit": "µg/mL"}, {"measurement": "MIC Range", "setting": "[1]", "value": "0.5 to 32", "unit": "µg/mL"}, {"measurement": "MIC50", "setting": "[2]", "value": 8, "unit": "µg/mL"}, {"measurement": "MIC90", "setting": "[2]", "value": 32, "unit": "µg/mL"}, {"measurement": "MIC Range", "setting": "[2]", "value": "0.5 to 32", "unit": "µg/mL"}, {"measurement": "MIC50", "setting": "[3]", "value": 8, "unit": "µg/mL"}, {"measurement": "MIC90", "setting": "[3]", "value": 32, "unit": "µg/mL"}]}]}
